Assay results published in patent publication US10538555B2, “Macrocyclic inhibitors of the PD-1/PD-L1 and CD80(B7-1)/PD-L1 protein/protein interactions” (BRISTOL-MYERS SQUIBB COMPANY, priority 2014, dated 2020).
Where two headings read alike, the source gives them in different places. Where a SMILES comes first, the peptide text is derived from it. Bridges are numbered along the chain shown (N, C = ends). [ ]: non-standard residue; d: D form. ξ: configuration not given here. Phe(3,4,5-F3) = N[C@@H](Cc1cc(F)c(F)c(F)c1)C(=O)O; Hyp = O=C(O)[C@@H]1C[C@@H](O)CN1; NMeF = CN[C@@H](Cc1ccccc1)C(=O)O; NMeNle = CCCC[C@H](NC)C(=O)O; hSer = N[C@@H](CCO)C(=O)O; NMeA = CN[C@@H](C)C(=O)O; Orn = NCCC[C@H](N)C(=O)O; dNMeA = CN[C@H](C)C(=O)O; Dab = NCC[C@H](N)C(=O)O; ξC = NC(CS)C(=O)O

Biological target: T1, Human PD-L1/PD-1 (Homo sapiens, UniProt Q9NZQ7)
T1 construct: TVMV protease cleavage site (C); made in house; host or cells: HEK293T cells
Assay: HTRF Human PD-L1/PD-1 binding assay (PD-1-Ig/PD-L1-His)
Conditions: PD-L1-His 10 nM, PD-1-Ig 20 nM
In short: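 Truncated Fc-fused human PD-1 (aa 25-167) at 20 nM and His-tagged PD-L1 (aa 18-239) at 10 nM final are used, with peptides preincubated 15 min with PD-L1. Detection uses europium-cryptate anti-Ig and APC anti-His antibodies; 665/620 nm ratio.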

[1] = class symbol, read-out: HTRF Human PD-L1/PD-1 Binding Assay IC50 Range

T1 sequence (Q9NZQ7 with tags, fused parts or gaps): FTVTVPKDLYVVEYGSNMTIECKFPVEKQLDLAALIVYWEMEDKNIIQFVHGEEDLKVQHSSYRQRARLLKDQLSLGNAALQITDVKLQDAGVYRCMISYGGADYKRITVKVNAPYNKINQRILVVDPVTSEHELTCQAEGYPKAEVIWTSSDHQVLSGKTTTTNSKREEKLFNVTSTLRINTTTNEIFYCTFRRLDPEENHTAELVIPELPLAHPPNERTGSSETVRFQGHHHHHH

SMILES	IC50 [1]	IC50 (read-out: HTRF Human PD-L1/PD-1 Binding Assay IC50)
CCCC[C@H]1C(=O)N(C)[C@@H](CCCC)C(=O)N[C@@H](CCC(=O)O)C(=O)NC(C(=O)NCC(N)=O)CSCC(=O)N[C@@H](Cc2ccc(O)cc2)C(=O)N(C)[C@@H](C)C(=O)N[C@@H](CC(N)=O)C(=O)N2CCC[C@H]2C(=O)N[C@@H](Cc2c[nH]cn2)C(=O)N[C@@H](CC(N)=O)C(=O)N2C[C@H](O)C[C@H]2C(=O)N[C@@H](Cc2c[nH]c3ccccc23)C(=O)N[C@@H](CCN)C(=O)N[C@@H](Cc2c[nH]c3ccccc23)C(=O)N1C (some centres unmarked) [Example 9183] ({CH2CO}-Y[NMeA]NPHN[Hyp]W[Dab]W[NMeNle][NMeNle]E[ξC]G-NH2; thioether N-14)	1 to 9.9 nM	–
CCCC[C@H]1C(=O)N(C)[C@@H](CCCC)C(=O)N[C@@H](CCC(=O)O)C(=O)NC(C(=O)NCC(N)=O)CSCC(=O)N[C@@H](Cc2ccc(O)cc2)C(=O)N(C)[C@@H](C)C(=O)N[C@@H](CC(N)=O)C(=O)N2CCC[C@H]2C(=O)N[C@@H](CC(N)=O)C(=O)N[C@@H](CC(C)C)C(=O)N2CCC[C@H]2C(=O)N[C@@H](Cc2c[nH]c3ccccc23)C(=O)N[C@@H](CCO)C(=O)N[C@@H](Cc2c[nH]c3ccccc23)C(=O)N1C (some centres unmarked) [Example 9184] ({CH2CO}-Y[NMeA]NPNLPW[hSer]W[NMeNle][NMeNle]E[ξC]G-NH2; thioether N-14)	10 to 99.9 nM	–
CCCC[C@H]1C(=O)N(C)[C@@H](CCCC)C(=O)N[C@@H](CCC(=O)O)C(=O)NC(C(=O)NCC(N)=O)CSCC(=O)N[C@@H](Cc2ccc(O)cc2)C(=O)N(C)[C@@H](C)C(=O)N[C@@H](CC(N)=O)C(=O)N2CCC[C@H]2C(=O)N[C@@H](CC(N)=O)C(=O)N[C@@H](CC(C)C)C(=O)N2C[C@H](O)C[C@H]2C(=O)N[C@@H](Cc2c[nH]c3ccccc23)C(=O)N[C@@H](CCO)C(=O)N[C@@H](Cc2c[nH]c3ccccc23)C(=O)N1C (some centres unmarked) [Example 9185] ({CH2CO}-Y[NMeA]NPNL[Hyp]W[hSer]W[NMeNle][NMeNle]E[ξC]G-NH2; thioether N-14)	1 to 9.9 nM	–
CCCC[C@H]1C(=O)N(C)[C@@H](CCCC)C(=O)N[C@@H](CCC(=O)O)C(=O)NC(C(=O)NCC(N)=O)CSCC(=O)N[C@@H](Cc2ccc(O)cc2)C(=O)N(C)[C@@H](C)C(=O)N[C@@H](CC(N)=O)C(=O)N2CCC[C@H]2C(=O)N[C@@H](Cc2c[nH]cn2)C(=O)N[C@@H](CC(N)=O)C(=O)N2CCC[C@H]2C(=O)N[C@@H](Cc2c[nH]c3ccccc23)C(=O)N[C@@H](CCO)C(=O)N[C@@H](Cc2c[nH]c3ccccc23)C(=O)N1C (some centres unmarked) [Example 9186] ({CH2CO}-Y[NMeA]NPHNPW[hSer]W[NMeNle][NMeNle]E[ξC]G-NH2; thioether N-14)	10 to 99.9 nM	–
CCCC[C@H]1C(=O)N(C)[C@@H](CCCC)C(=O)N[C@@H](CCC(=O)O)C(=O)NC(C(=O)NCC(N)=O)CSCC(=O)N[C@@H](Cc2ccc(O)cc2)C(=O)N(C)[C@@H](C)C(=O)N[C@@H](CC(N)=O)C(=O)N2CCC[C@H]2C(=O)N[C@@H](Cc2c[nH]cn2)C(=O)N[C@@H](CC(N)=O)C(=O)N2C[C@H](O)C[C@H]2C(=O)N[C@@H](Cc2c[nH]c3ccccc23)C(=O)N[C@@H](CCO)C(=O)N[C@@H](Cc2c[nH]c3ccccc23)C(=O)N1C (some centres unmarked) [Example 9187] ({CH2CO}-Y[NMeA]NPHN[Hyp]W[hSer]W[NMeNle][NMeNle]E[ξC]G-NH2; thioether N-14)	1 to 9.9 nM	–
CC(C)C[C@@H]1NC(=O)[C@H](Cc2ccc(O)cc2)NC(=O)[C@H](Cc2c[nH]c3ccccc23)NC(=O)[C@@H](C)N(C)C(=O)[C@H](Cc2ccc(O)cc2)NC(=O)[C@H](Cc2ccccc2)N(C)C(=O)[C@H](C(C)C)NC(=O)[C@H](CC(=O)O)NC(=O)[C@@H](C)N(C)C(=O)[C@H](C)N(C)C(=O)[C@H](Cc2ccccc2)N(C)C(=O)[C@H](Cc2cc(F)c(F)c(F)c2)NC(=O)CSC[C@@H](C(=O)NCC(N)=O)NC1=O [Example 9188] ({CH2CO}-[Phe(3,4,5-F3)][NMeF][NMeA][dNMeA]DV[NMeF]Y[dNMeA]WYLCG-NH2; thioether N-13)	1 to 9.9 nM	–
CC(C)C[C@@H]1NC(=O)[C@H](Cc2ccc(O)cc2)NC(=O)[C@H](Cc2c[nH]c3ccccc23)NC(=O)[C@@H](C)N(C)C(=O)[C@H](Cc2ccc(O)cc2)NC(=O)[C@H](Cc2ccccc2)N(C)C(=O)[C@H](C(C)C)NC(=O)[C@H](CCC(=O)O)NC(=O)[C@@H](C)N(C)C(=O)[C@H](C)N(C)C(=O)[C@H](Cc2ccccc2)N(C)C(=O)[C@H](Cc2cc(F)c(F)c(F)c2)NC(=O)CSC[C@@H](C(=O)NCC(N)=O)NC1=O [Example 9189] ({CH2CO}-[Phe(3,4,5-F3)][NMeF][NMeA][dNMeA]EV[NMeF]Y[dNMeA]WYLCG-NH2; thioether N-13)	1 to 9.9 nM	–
CC(C)C[C@@H]1NC(=O)[C@H](Cc2ccc(O)cc2)NC(=O)[C@H](Cc2c[nH]c3ccccc23)NC(=O)[C@@H](C)N(C)C(=O)[C@H](Cc2ccc(O)cc2)NC(=O)[C@H](Cc2ccccc2)N(C)C(=O)[C@H](C(C)C)NC(=O)[C@H](CC(N)=O)NC(=O)[C@@H](C)N(C)C(=O)[C@H](C)N(C)C(=O)[C@H](Cc2ccccc2)N(C)C(=O)[C@H](Cc2cc(F)c(F)c(F)c2)NC(=O)CSC[C@@H](C(=O)NCC(N)=O)NC1=O [Example 9190] ({CH2CO}-[Phe(3,4,5-F3)][NMeF][NMeA][dNMeA]NV[NMeF]Y[dNMeA]WYLCG-NH2; thioether N-13)	10 to 99.9 nM	–
CC(C)C[C@@H]1NC(=O)[C@H](Cc2ccc(O)cc2)NC(=O)[C@H](Cc2c[nH]c3ccccc23)NC(=O)[C@@H](C)N(C)C(=O)[C@H](Cc2ccc(O)cc2)NC(=O)[C@H](Cc2ccccc2)N(C)C(=O)[C@H](C(C)C)NC(=O)[C@H](CCC(N)=O)NC(=O)[C@@H](C)N(C)C(=O)[C@H](C)N(C)C(=O)[C@H](Cc2ccccc2)N(C)C(=O)[C@H](Cc2cc(F)c(F)c(F)c2)NC(=O)CSC[C@@H](C(=O)NCC(N)=O)NC1=O [Example 9191] ({CH2CO}-[Phe(3,4,5-F3)][NMeF][NMeA][dNMeA]QV[NMeF]Y[dNMeA]WYLCG-NH2; thioether N-13)	10 to 99.9 nM	–
CC(C)C[C@@H]1NC(=O)[C@H](Cc2ccc(O)cc2)NC(=O)[C@H](Cc2c[nH]c3ccccc23)NC(=O)[C@@H](C)N(C)C(=O)[C@H](Cc2ccc(O)cc2)NC(=O)[C@H](Cc2ccccc2)N(C)C(=O)[C@H](C(C)C)NC(=O)[C@H](CCO)NC(=O)[C@@H](C)N(C)C(=O)[C@H](C)N(C)C(=O)[C@H](Cc2ccccc2)N(C)C(=O)[C@H](Cc2cc(F)c(F)c(F)c2)NC(=O)CSC[C@@H](C(=O)NCC(N)=O)NC1=O [Example 9192] ({CH2CO}-[Phe(3,4,5-F3)][NMeF][NMeA][dNMeA][hSer]V[NMeF]Y[dNMeA]WYLCG-NH2; thioether N-13)	–	14 nM
CC(C)[C@@H]1NC(=O)[C@H](CC(=O)O)NC(=O)[C@@H](C)N(C)C(=O)[C@H](C)N(C)C(=O)[C@H](Cc2ccccc2)N(C)C(=O)[C@H](Cc2cc(F)c(F)c(F)c2)NC(=O)CSC[C@@H](C(=O)NCC(N)=O)NC(=O)[C@H](CCCN)NC(=O)[C@H](Cc2ccc(O)cc2)NC(=O)[C@H](Cc2c[nH]c3ccccc23)NC(=O)[C@@H](C)N(C)C(=O)[C@H](Cc2ccc(O)cc2)NC(=O)[C@H](Cc2ccccc2)N(C)C1=O [Example 9193] ({CH2CO}-[Phe(3,4,5-F3)][NMeF][NMeA][dNMeA]DV[NMeF]Y[dNMeA]WY[Orn]CG-NH2; thioether N-13)	1 to 9.9 nM	–
